Data as given in US20100074896A1, “ANTAGONISTS OF PGE2 EP3 RECEPTORS” (The Johns Hopkins University, priority 2006, published 2010).

How the values were obtained:
EP1 receptor = molecular target: T1, EP1 receptor (Mus musculus, UniProt P35375); conditions: read-out: Affinity for the EP1 receptor; cited from earlier work
T1 sequence (P35375 1-405): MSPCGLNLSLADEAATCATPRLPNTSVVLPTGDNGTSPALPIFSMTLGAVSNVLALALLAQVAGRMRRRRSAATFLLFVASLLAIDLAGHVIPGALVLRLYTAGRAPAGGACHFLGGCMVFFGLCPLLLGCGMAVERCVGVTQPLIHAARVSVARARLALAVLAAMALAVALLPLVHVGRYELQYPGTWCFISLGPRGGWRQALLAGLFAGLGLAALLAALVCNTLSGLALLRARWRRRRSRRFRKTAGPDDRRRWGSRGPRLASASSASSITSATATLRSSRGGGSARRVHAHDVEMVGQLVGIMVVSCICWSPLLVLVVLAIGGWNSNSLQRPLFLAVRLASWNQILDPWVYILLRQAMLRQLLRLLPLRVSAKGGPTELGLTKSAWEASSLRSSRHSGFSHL

EP3 receptor = molecular target: T2, EP3 receptor (Mus musculus, UniProt P30557); conditions: cited from earlier work; for Ki: read-out: Affinity for the EP3 receptor
T2 sequence (P30557 1-365): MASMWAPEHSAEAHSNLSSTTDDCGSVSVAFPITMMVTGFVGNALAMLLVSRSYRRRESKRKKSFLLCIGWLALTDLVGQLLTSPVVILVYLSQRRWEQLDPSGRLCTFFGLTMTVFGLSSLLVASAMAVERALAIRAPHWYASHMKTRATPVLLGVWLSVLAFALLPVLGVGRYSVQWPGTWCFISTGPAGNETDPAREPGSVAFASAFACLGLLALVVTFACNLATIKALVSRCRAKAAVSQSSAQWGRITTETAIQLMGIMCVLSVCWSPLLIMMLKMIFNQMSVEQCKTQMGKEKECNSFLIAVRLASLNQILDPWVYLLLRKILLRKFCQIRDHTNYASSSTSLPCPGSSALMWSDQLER

[1] = system: mouse model of middle cerebral artery (MCA) occlusion; test: MCAO (90 min) and reperfusion, hemispheric infarct volume; format: in vivo; conditions: 90 min occlusion, 4 days reperfusion
Procedure: (§1) Mice were anesthetized with 3.0% halothane and maintained with 1.0-1.5% continuous flow of halothane in oxygen-enriched air. Then the mice were mounted on a stereotactic frame and injected with 0.2 μl of different doses of ONO-AE-248 (0.5 nmol, 2.5 nmol, or 5.0 nmol) or vehicle (DMSO) via a 1μl Hamilton syringe (Reno, Nev.) into the right lateral ventricle as described previously (Ahmad et al., 2006a). After the injection, the needle was retracted slowly, the hole was plugged with bone wax, and the wound was sutured. Mice were then either transferred to another setup for the MCAO procedure or left in place for NMDA injection (see below).
During the MCAO procedure (FIG. 1, Illustration A), mouse rectal temperature was monitored and maintained at 37.0±0.5° C. by a heating pad, and anesthesia was maintained with continuous flow of halothane in oxygen-enriched air via a nose cone. Relative CBF was monitored with laser-Doppler flowmetry (Moor Instruments, Devon, England) by a flexible fiber optic probe affixed to the skull over the parietal cortex supplied by the MCA (2 mm posterior and 6 mm lateral to the bregma). MCAO was carried out under aseptic conditions with a silicone-coated nylon monofilament as described previously (Shah et al., 2006). […]
Four days after MCAO surgery, mice (n=9/dose) were deeply anesthetized, and their brains were harvested and sliced coronally into five 2-mm-thick sections. […] The area of infarcted brain, identified by the lack of TTC staining, was measured on the rostral and caudal surfaces of each slice and numerically integrated across the thickness of the slice to obtain an estimate of infarct volume in each slice (SigmaScan Pro, SPSS, Port Richmond, Calif., USA). Volumes from all five slices were summed to calculate total infarct volume over the entire hemisphere and expressed as a percentage of the volume of the contralateral structure. […] The corrected infarct volume was calculated as: volume of contralateral hemisphere−(volume of ipsilateral hemisphere−volume of infarct).

mice [2] = test: Analysis of physiological parameters (arterial blood pH, PaO2, PaCO2, MABP) around MCAO; format: in vivo, mouse; conditions: before ischemia, during ischemia, during reperfusion; all doses
Procedure: Measurement of physiological parameters was carried out in a group of mice separate from that used to assess infarct volume (FIG. 1, Illustration B). Arterial blood samples collected via femoral catheter were analyzed for pH, PaO2, and PaCO2 before the occlusion, during occlusion, and 1 h after the occlusion. MABP was measured at the same time points by a pressure transducer connected to the femoral catheter.

mice [3] = test: Core body temperature by intra-abdominal radiofrequency probe; format: in vivo, mouse; conditions: mice without MCAO, room temperature, 4-day experiment
Procedure: A third cohort of mice was implanted with intra-abdominal radiofrequency probes [IPTT-200, Bio. Medic. Data System (BMDS), Seaford, Del.] 7 days before injection of ONO-AE-248 (n=5) or vehicle (n=5). Core temperature was sampled every 10 min for the first 90 min after injection, and then once daily for 4 days at room temperature via receivers (The DAS-5002 Notebook System™; BMDS). This telemetry system minimizes stress and allows temperature control and monitoring in freely moving animals.

[4] = system: NMDA-induced brain lesion in C57B1/6 WT mice; test: NMDA-induced brain lesion volume (excitotoxicity); format: in vivo, mouse; conditions: 15 nmol NMDA intrastriatal, 48 h
Procedure: as §1
To investigate the effect of NMDA toxicity in mice lacking the EP3 receptor, WT (n=7) and EP3-/- (n=8) mice were injected in the right striatum with 15 nmol NMDA or vehicle in a volume of 0.3 μl 20 min after being injected with ONO-AE-248, as reported earlier (Ahmad et al., 2006a). After injection, the hole was blocked and the wound sutured, as described above. After the surgical procedures, the animals were transferred to a temperature-regulated chamber to recover from anesthesia. Throughout the stereotactic procedures the rectal temperature of mice was monitored and maintained at 37.0±0.5° C.
At 48 h after NMDA injection, weight and rectal temperature of each mouse was recorded. Then, mice were transcardially perfused with phosphate-buffered saline, followed by 4% paraformaldehyde (pH 7.2), under deep anesthesia. Brains were immediately removed, post-fixed in paraformaldehyde overnight, cryoprotected in sucrose (30%) for 3 days, and frozen in 2-methyl butane (pre-cooled over dry ice). Brain sections cut on a cryostat were collected on microscope slides and stained with Cresyl Violet to estimate lesion volume. Images of the brain sections were taken and analyzed with SigmaScan Pro 5.0 software (Systat Software Inc., Richmond, Calif.) as described previously (Ahmad et al., 2006b).

EP3 = conditions: CHO cell lines; cited from earlier work
rats = conditions: single ICV injection, 20 nmol; cited from earlier work

SMILES | Ki (EP1 receptor) [nM] | Ki (EP3 receptor) [nM] | Infarct volume increase as compared with the vehicle-treated group ([1]; 0.5 nmol ICV before MCAO, not statistically significant) [%] | Infarct volume increase as compared with the vehicle-treated group ([1]; 2.5 nmol ICV before MCAO, statistically significant) [%] | Infarct volume increase as compared with the vehicle-treated group ([1]; 5.0 nmol ICV before MCAO, statistically significant) [%] | MABP versus vehicle group (mice [2]) | PaCO2 versus vehicle group (mice [2]) | PaO2 versus vehicle group (mice [2]) | pH (arterial blood) versus vehicle group (mice [2]) | Effect on core body temperature (mice [3]) | Effect on NMDA-induced toxicity ([4]; 0.5 nmol ICV pretreatment) | Effect on NMDA-induced lesion size ([4]; 2.5 nmol ICV pretreatment, p<0.02) | Effect on NMDA-induced lesion size ([4]; 5 nmol ICV pretreatment, p<0.001) | Specificity for EP3 over EP1 (EP3 receptor; EP3 versus EP1) [times] | Effect on forskolin-induced increase in cAMP (EP3) | Effect on body temperature (rats)
CS(=O)(=O)NC(=O)CCC/C=C\C[C@H]1C(=O)C[C@@H](O)[C@@H]1/C=C/[C@@H](O)COc1ccccc1 [sulprostone] | 4 | 0.6 | – | – | – | – | – | – | – | – | – | – | – | – | – | –
O=C(O)CCC/C=C\C[C@H]1C(=O)C[C@@H](O)[C@@H]1/C=C/[C@@H](O)CCc1ccccc1 [17-phenyl trinor PGE2] | 14 | 21 | – | – | – | – | – | – | – | – | – | – | – | – | – | –
CCCCC[C@@H](/C=C/[C@H]1[C@H](OC)CC(=O)[C@@H]1C/C=C\CCCC(=O)O)OC [ONO-AE-248] | – | – | 17 | 34 | 38 | No statistically significant differences | No statistically significant differences | No statistically significant differences | No statistically significant differences | did not affect core body temperature | did not affect | significantly and dose-dependently increased | significantly and dose-dependently increased | 1333 | prevented the forskolin-induced increase in cAMP | mild hyperthermia was induced
